Patent US9763969B2, “Treatment of inflammatory conditions with hyaluronan disaccharide” (CEDARS-SINAI MEDICAL CENTER, priority 2013, dated 2017)

B1: GBS hyaluronidase: purified hyaluronidase from Group B Streptococcus (S. agalactiae) that degrades HA to a disaccharide (protein, UniProt Q53591 41-984, looked up)
Hyaluronate lyase: WIDKENTADKSPIIQRTEQGQVSLSSDKGFRGAVTQKVNIDPTKKYEVKFDIETSNKAGQAFLRIMEKKDNNTRLWLSEMTSGTTNKHTLTKIYNPKLNVSEVTLELYYEKGTGSATFDNISMKAKGPKDSEHPQPVTTQIEESVNTALNKNYVFNKADYQYTLTNPSLGKIVGGILYPNATGSTTVKISDKSGKIIKEVPLSVTASTEDKFTKLLDKWNDVTIGNHVYDTNDSNMQKINQKLDETNAKNIKTIKLDSNHTFLWKDLDNLNNSAQLTATYRRLEDLAKQITNPHSTIYKNEKAIRTVKESLAWLHQNFYNVNKDIEGSANWWDFEIGVPRSITATLALMNNYFTDAEIKTYTDPIEHFVPDAGYFRKTLDNPFKALGGNLVDMGRVKIIEGLLRKDNTIIEKTSHSLKNLFTTATKAEGFYADGSYIDHTNVAYTGAYGNVLIDGLTQLLPIIQETDYKISNQELDMVYKWINQSFLPLIVKGELMDMSRGRSISREAASSHAAAVEVLRGFLRLANMSNEERNLDLKSTIKTIITSNKFYNVFNNLKSYSDIANMNKMLNDSTVATKPLKSNLSTFNSMDRLAYYNAEKDFGFALSLHSKRTLNYEGMNDENTRDWYTGDGMFYLYNSDQSHYSNHFWPTVNPYKMAGTTEKDAKREDTTKEFMSKHSKDAKEKTGQVTGTSDFVGSVKLNDHFALAAMDFTNWDRTLTAQKGWVILNDKIVFLGSNIKNTNGIGNVSTTIDQRKDDSKTPYTTYVNGKTIDLKQASSQQFTDTKSVFLESKEPGRNIGYIFFKNSTIDIERKEQTGTWNSINRTSKNTSIVSNPFITISQKHDNKGDSYGYMMVPNIDRTSFDKLANSKEVELLENSSKQQVIYDKNSQTWAVIKHDNQESLINNQFKMNKAGLYLVQKVGNDYQNVYYQPQTMTKTDQLAI

What was measured:
[1] = tested on: bone marrow derived macrophages; experiment: macrophage stimulation assay, LPS or undigested hyaluronan with hyaluronan disaccharide; type: cell-based, mice
Protocol: FIG. 6 depicts, in accordance with an embodiment of the invention, hyaluronan disaccharide has an anti-inflammatory property. Hyaluronan disaccharide was co-incubated with LPS or undigested hyaluronan in a macrophage stimulation assay. Hyaluronan disaccharide reduces TNF-α induction by LPS or undigested hyaluronan.
FIG. 11 depicts, in accordance with an embodiment of the invention, hyaluronan dimers are not inert. Bone marrow derived macrophages from WT mice were incubated with LPS and various concentrations of hyaluronan disaccharide. TNF-α at 18 h was measured.

[2] = tested on: acute lung injury; experiment: LPS acute lung injury, intratracheal; type: in vivo; conditions: mice, 5 micrograms LPS intratracheally, 100 micrograms disaccharide, 24 h; FIG. 14
Protocol: FIG. 14 depicts, in accordance with an embodiment of the invention, HA disaccharide decreases acute lung injury. Mice were injected intratracheally with 5 micrograms of LPS, along with PBS, Hyaluronan disaccharide (100 micrograms) or GBS enzyme (1 mg). At 24 h, the mice were sacrificed and the lungs were analyzed for histology (F&G) and cytokines and chemokines (A-E).

[3] = tested on: macrophage; experiment: macrophage stimulation assay, Pam3csk4 induced TNF-α secretion; type: cell-based; conditions: FIG. 3C; for Pam3csk4 induced TNF-α secretion: TLR2 agonist Pam3csk4
Excerpt: (§1) FIG. 3 depicts, in accordance with an embodiment of the invention, in vitro anti-inflammatory properties of GBS hyaluronidase. A. Bio-Gel P-4 chromatography of hyaluronidase digestion mixture following digestion with GBS, bovine testis, or Streptomyces hyaluronlyticus hyaluronidase. B. Digestion of HA by GBS hyaluronidase leads to suppressed inflammation. C. HA disaccharide inhibits Pam3csk4 induced TNFα secretion.
(§2) Since bovine hyaluronidase degrades HA to 4-16mers, the inventors asked whether subsequent degradation with GBS hyaluronidase would abrogate induction of TNF-α. Indeed that is what the inventors found (FIG. 3B right). Because the major product of GBS hyaluronidase enzymatic activity is diHA (disaccharide), the inventors also evaluated the direct effect of DiHA on TNF-α secretion induced by a TLR2 agonist Pam3csk4.

[4] = tested on: TLR4; experiment: TLR4 reporter construct in HEK cells; type: cell-based; conditions: TLR4 agonist LPS, FIG. 12A
Protocol: (§3) FIG. 12 depicts, in accordance with an embodiment of the invention, HA disaccharide reduces TLR 2 and 4 (A), but not TLR9 (B) signaling. HEK cells were transfected with TLR2, 4, and 9 reporter constructs. The cells were incubated with TLR2 agonist (Pam3), TL4 agonist (LPS), or TLR9 agonist (Cpg) with or without hyaluronan disaccharide. Activation of the reporter genes at 4 h was measured.

[5] = tested on: TLR2; experiment: TLR2 reporter construct in HEK cells; type: cell-based; conditions: TLR2 agonist Pam3, FIG. 12A
Protocol: as §3

[6] = tested on: TLR9; experiment: TLR9 reporter construct in HEK cells; type: cell-based; conditions: TLR9 agonist Cpg, FIG. 12B
Protocol: as §3

[7] = hyaluronidase digestion of HA, fragment sizes (Bio-Gel P-4 chromatography / HPLC); type: biochemical; conditions: FIG. 3A
Excerpt: as §1
(§4) FIG. 8 depicts, in accordance with an embodiment of the invention, GBS hyaluronidase reduces hyaluronan to dimers and dampens inflammation. HPLC profile of hyaluronan fragments generated by bovine hyaluronidase versus Group B streptococcus (GBS) hyaluronidase (A). Stimulatory hyaluronan fragments (4-16mers) were digested with GBS hyaluronidase for 4 or 15 hours (B).
as §2

[8] = tested on: bone marrow derived macrophages; experiment: hyaluronan predigested with GBS hyaluronidase, then stimulation of macrophages; type: cell-based
Excerpt: FIG. 7 depicts, in accordance with an embodiment of the invention, Group B streptococcal hyaluronidase has an anti-inflammatory property. Hyaluronan was predigested with purified GBS hyaluronidase or PBS, and then transferred to a culture of bone marrow derived macrophages.
as §4, §2

| Molecule | TNF-α at 18 h with LPS and various concentrations of hyaluronan disaccharide ([1]; bone marrow derived macrophages from WT mice, FIG. 11) | TNF-α induction by LPS ([1]; co-incubated with LPS, FIG. 6) | TNF-α induction by undigested hyaluronan ([1]; co-incubated with undigested hyaluronan, FIG. 6) | acute lung injury [2] | immunostimulatory capacity [3] | Pam3csk4 induced TNF-α secretion ([3]; listed as HA disaccharide) | Pam3csk4 induced TNF-α secretion ([3]; listed as diHA) | TLR4 signaling (reporter gene activation at 4 h) [4] | TLR2 signaling (reporter gene activation at 4 h) [5] | TLR9 signaling (reporter gene activation at 4 h) [6] | HA degradation product (fragment size) [7] | TNF-α stimulation by hyaluronan ([8]; hyaluronan predigested with purified GBS hyaluronidase or PBS, FIG. 7) | cytokine production ([8]; stimulatory hyaluronan fragments (4-16mers) digested for 4 or 15 hours, FIG. 8B) | induction of TNF-α by HA degraded with bovine hyaluronidase ([8]; subsequent degradation with GBS hyaluronidase, FIG. 3B right) |
| --- | --- | --- | --- | --- | --- | --- | --- | --- | --- | --- | --- | --- | --- | --- |
| hyaluronan disaccharide | not inert | reduces | reduces | decreases | no immunostimulatory capacity | inhibits | partially inhibited | reduces | reduces | not |  |  |  |  |
| B1 |  |  |  |  |  |  |  |  |  |  | a single product—a disaccharide | significantly reduces | reduces cytokine production | abrogate |
